In article PMC4026539, “Improved Photodynamic Efficacy of Zn(II) Phthalocyanines via Glycerol Substitution” (PLoS ONE, 2014):

Experiments:
[1] = set-up: method as in PMID 11883602; settings: in alcohol; reference standard; cited from earlier work
HSC-2 cells = experiment: Cellular uptake study by flow cytometry; format: cell-based, human; settings: 10 µM
Protocol: HSC-2 cells were plated overnight in 6-well plates (1×10^5 cells/well) in MEM media. Cells were incubated with 10 µM of phthalocyanine 1, 2, 3 or ZnPcS4 for various time intervals. Following incubation, cells were washed twice with PBS, collected by trypsinization and resuspended in phenol red-free MEM media. The mean fluorescence signal for 10 000 cells were analyzed using FACSCalibur flow cytometer (Becton Dickinson, NJ) with FL4 channel (excitation 635 nm, bandpass filter 661/16 nm) and data collected were translated into relative concentration using the formula F = k * QE * Po * (2.303 *ε * b * c). All assays were performed in triplicates. F = measured fluorescence intensity, k = geometric instrumental factor, QE = quantum efficiency (ratio of photons being emitted to photons being absorbed) and Po = radiant power of the excitation source (wavelength-dependent molar absorptivity coefficient). b and c are as being used in the Beer-Lambert law, where b = path length, and c = concentration of the analyte.

[2] = tested on: MCF-7, HCT-116 and HSC-2 cancer cell-lines; experiment: In vitro phototoxicity assay (MTT), panel of cancer cell lines; format: cell-based, human; settings: 4.0 J/cm^2
Protocol: MCF-7 human breast carcinoma and HCT-116 cells human colon carcinoma cell lines were obtained from American Tissue Culture Collection (Virginia, USA), whereas HSC-2 human oral squamous carcinoma cell line was purchased from Health Science Research Resources Bank, (Osaka, Japan). Approximately 3000–4000 cells/well were seeded in 96-well plate and incubated overnight for cell adherence and growth. […] Illumination was performed in the presence of photosensitizer in the media. The cells were further incubated for 48 h before cell viability was assessed by the MTT assay. For MTT assay, 20 µl of MTT solution (5 mg/ml) were added to each well and incubated for 4 h. The medium was removed and replaced with 100 µl of DMSO to dissolve the formazan crystal formed and the absorbance was read at 570 nm with a microplate reader. The percentage of cell viability was determined relative to untreated control and the half maximal inhibitory concentration (IC50) values were determined. Dark toxicity for each phthalocyanine was also determined in parallel.

[3] = set-up: method as in earlier work; settings: in DMSO; reference standard value; cited from earlier work
[4] = UV-visible absorption spectra in different solvents; format: physicochemical; set-up: λmax: unit not given beside the values; settings: 10 µM
Protocol: The UV-visible (10 µM) and fluorescence emission spectra (5 µM) of phthalocyanines in different solvents were measured using SpectraMax M4 microplate reader (Molecular Devices, CA). UV-visible spectra were collected for wavelengths ranging from 350–800 nm and molar extinction coefficient (ε) for each compound was determined. Meanwhile, the fluorescence emission spectra of the compounds were recorded at 650–800 nm following excitation at their respective maximal absorption (λmax). The fluorescence quantum yields (φF) were calculated by using the following formula: φF = φFstd (F×Astd)/[…] where, F and Fstd refer to the area under the fluorescence curve of sample and standard, respectively. A and Astd refer to the absorbance of sample and standard compound at their excitation wavelengths respectively. ZnPcS4 with φFstd = 0.07 (DMSO) was used as reference.

[5] = Log P partition coefficient, shake-flask method; format: physicochemical; settings: Octanol-1/H2O, room temperature
Protocol: Phthalocyanines were prepared in presaturated Octanol-1 (Oct) or H2O depending on their solubility (ZnPcS4, phthalocyanines 1 and 2 in H2O; phthalocyanine 3 in Oct) with concentrations ranging from 1–20 µM. […] The glass tube was left to stand for 1–2 h at room temperature. The absorbance of the phthalocyanine was measured before addition of the other solvent and also after incubation. To obtain log P value, calculations were done using the formula: log P = log [COct/CH2O] where, COct and CH2O represent concentrations of phthalocyanine in Oct and H2O, respectively. Partition coefficient (log P) is defined as the ratio of concentrations of a dissolved substance in a two-phase system consisting of two immiscible solvents e.g. n-octanol and water at equilibrium. It reflects the level of hydrophilicity and hydrophobicity of a compound, which determines the permeability of the compound across the lipid bilayers of cell membrane. In this study, the log P values of the phthalocyanines were measured using the shake-flask method.

[6] = tested on: MCF-7 human breast carcinoma; experiment: In vitro phototoxicity assay (MTT); format: cell-based; settings: 2 h incubation, MTT after 48 h
Protocol: (§1) MCF-7 human breast carcinoma and HCT-116 cells human colon carcinoma cell lines were obtained from American Tissue Culture Collection (Virginia, USA), whereas HSC-2 human oral squamous carcinoma cell line was purchased from Health Science Research Resources Bank, (Osaka, Japan). Approximately 3000–4000 cells/well were seeded in 96-well plate and incubated overnight for cell adherence and growth. Cells were then treated with phthalocyanines 1, 2, 3 or ZnPcS4 with concentrations ranging from 0.01 to 100 µM and were incubated for 2 h before irradiated with 4.0 J/cm^2 of light filtered with Roscolux #26 Light Red (>580 nm) (Rosco, NY) membrane filter at a fluence rate of 7.5 mW/cm^2 for 10 min. Illumination was performed in the presence of photosensitizer in the media. The cells were further incubated for 48 h before cell viability was assessed by the MTT assay. For MTT assay, 20 µl of MTT solution (5 mg/ml) were added to each well and incubated for 4 h. The medium was removed and replaced with 100 µl of DMSO to dissolve the formazan crystal formed and the absorbance was read at 570 nm with a microplate reader. The percentage of cell viability was determined relative to untreated control and the half maximal inhibitory concentration (IC50) values were determined. Dark toxicity for each phthalocyanine was also determined in parallel.

[7] = tested on: HSC-2 human oral squamous carcinoma cell line; experiment: In vitro phototoxicity assay (MTT); format: cell-based; settings: 2 h incubation, MTT after 48 h
Protocol: as §1

[8] = tested on: HCT-116 cells human colon carcinoma; experiment: In vitro phototoxicity assay (MTT); format: cell-based; settings: 2 h incubation, MTT after 48 h
Protocol: as §1

CAM vasculature = experiment: PDT-induced vascular occlusion in CAM model; format: in vivo, Lohmann Brown chicken; settings: for Occlusion score: 10 nmol/embryo i.v., mean ± SEM of ten embryos, scale of Table 1
Protocol: Freshly fertilized eggs from Lohmann Brown chicken variety (Hong Hing Sdn. Bhd, Selangor, Malaysia) were incubated with the narrow apex down in a 90° swinging Octagon 40DX incubator (Brinsea Products Inc., Standford, England) at 37°C and 65% relative humidity. On embryo development day (EDD) three, an eggshell opening of about 4 mm in diameter was bored at the apex and sealed with adhesive tape to avoid contamination and desiccation of the egg contents. The eggs were further incubated in stationary position with the apex upright until ready for use at EDD-9.
For vascular occlusion study, the egg opening was extended to ∼30 mm in diameter on EDD-9. Embryos were intravenously administered with a single bolus of 10 nmol/embryo of phthalocyanine in dosing vehicle (5% CrEL, 5% EtOH in saline) at the CAM main vasculature. One min after injection, a site with blood vessel diameter between 5–100 µm was irradiated with a light dose of 5 J/cm^2 or 10 J/cm^2. Irradiation was performed with light of 600–800 nm wavelength with a fluence rate of 11.5 mW/cm^2 over an irradiation area of 1.13 mm^2. Fluorescence angiograms were performed immediately to assess the PDT-induced vasculature damage. Blood vessels were perfused with 20 µl of 25 mg/ml FITC-dextran followed by injection of Indian ink into the extra-embryonic cavity to decrease the embryo’s interfering fluorescence from deeper located vessels. The vasculature network at the site of irradiation was illuminated by exciting FITC at 465–496 nm wavelengths on the fluorescence microscope. The vasculature network was imaged and the extent of damage induced by PDT was scored using a previously defined arbitrary damage scale from 1 to 5 as listed in Table 1 [26]. Generally, the damage on smaller vessels would have lower score whereas the damage on larger blood vessels would have higher score, depending on the size and degree of damage that was caused. At least 10 embryos were assessed for each treatment group.

Molecule: C=Cc1c(C)c2cc3nc(c4c5[nH]c(cc6nc(cc1[nH]2)C(C)=C6CC)c(C)c5C(=O)[C@@H]4C(=O)OC)[C@@H](CCC(=O)O)[C@@H]3C [Pha, pheophorbide a]
- singlet oxygen quantum yield [1]: 0.52

Molecule: tetrasulfonated zinc (II) phthalocyanine [ZnPcS4]
- cellular uptake (in words) (HSC-2 cells): poorly taken up by cells
- phototoxicity IC50, range over MCF-7, HCT-116 and HSC-2 ([2]; tested up to 100 µM): failed to yield determinable IC50 values
- loss of cell viability ([2]; treatment concentrations of up to 100 µM): no significant loss of cell viability
- φF (fluorescence quantum yield) [3]: 0.07
- ε ([4]; DMSO): 114 000 M^−1cm^−1
- λmax ([4]; DMSO): 676
- ε ([4]; Ethanol): 27 000 M^−1cm^−1
- λmax ([4]; Ethanol): 666
- ε ([4]; PBS+2% Triton x-100): 20 000 M^−1cm^−1
- λmax ([4]; PBS+2% Triton x-100): 606
- ε ([4]; PBS): 23 000 M^−1cm^−1
- λmax ([4]; PBS): 606
- log P [5]: −1.7±0.4
- IC50 ([6]; 0 J/cm^2 (dark toxicity)): > 100 µM
- IC50 ([6]; 4.0 J/cm^2 (>580 nm)): > 100 µM
- IC50 ([7]; 0 J/cm^2 (dark toxicity)): > 100 µM
- IC50 ([7]; 4.0 J/cm^2 (>580 nm)): > 100 µM
- IC50 ([8]; 0 J/cm^2 (dark toxicity)): > 100 µM
- IC50 ([8]; 4.0 J/cm^2 (>580 nm)): > 100 µM
- Occlusion score (CAM vasculature; 5 J/cm^2, 600–800 nm): 0 ± 0.0
- Occlusion score (CAM vasculature; 10 J/cm^2, 600–800 nm): 0 ± 0.2
- vascular occlusion effect (in words) (CAM vasculature; 10 nmol/embryo, 5 J/cm^2): failed to demonstrate vascular occlusion effects
- vascular occlusion effect (in words) (CAM vasculature; similar experimental conditions, light dose not stated at the place (abstract)): no detectable vascular occlusion
